In patent publication US20240002326A1, “COMPOUNDS AND USE THEREOF IN METHODS OF TREATMENT” (The University of Queensland, priority 2016, published 2024):
Entries after “also recorded” stand apart in the source; their conditions may differ. *1 amine or outer side, *2 acyl side, *3 side chain or, on linkers, in order; H or OH if unused. Where a SMILES comes first, the peptide text is derived from it. Bridges are numbered along the chain shown (N, C = ends). Roman numbers before positions name the chains, in order. [ ]: non-standard residue; d: D form. Actinocin(9to1) = Cc1c2oc3c(C)ccc(C(=O)[*:1])c3nc-2c(C(=O)[*:2])c(N)c1=O; NMeV = CN[C@H](C(=O)O)C(C)C; Sar = CNCC(=O)O

Assays:
[1] = biological target: SOX18[109] HMG fragment (Mus musculus (Mouse), UniProt P43680); experiment: FP DNA-binding competition assay, SOX18[109] HMG fragment; details: for FP bound fraction (%) 50 μM / FP bound fraction (%) 200 μM: SOX18/DNA binding
Description: Mouse SOX HMG fragments. The HMG domains of mouse SOX2 (Group B), SOX11 (Group C), SOX6 (Group D), SOX9 (Group E), SOX18 (Group F) and SOX15 (Group G) were BP cloned from cDNA templates (IMAGE cDNA clone IDs: Sox18: 3967084; Sox9: 5354229; Sox4: 6822618) into a pDONRTM221 pENTRY vector, sequenced and recombined into a pETG20A or a pHisMBP expression plasmid using Gateway®LR Technology (Ng et al., 2012). Constructs were transformed into Escherichia coli BL21(DE3) cells (Luria-Bertani, 100 μg/ml Ampicillin).
The DNA-binding competition assay was performed in black 384-well plates, with mouse full length SOX18, or SOX-HMG fragments. All experiments were performed using a fluorescently-labelled Prox1-DNA element. Controls consisted of free labelled DNA (low FP milli-Polarization index, mP), labelled DNA in presence of protein (negative control, high mP), and labelled DNA and protein in presence of competing excess of unlabelled DNA (positive control, low mP)
The DNA-binding competition assay was performed in 25 uL, in black 384-well plates, using either 30 mM HEPES (N-2-Hydroxyethylpiperazine-N′-2-Ethanesulfonic Acid) (pH 7.5, with 100 mM KCl, 40 mM NaCl, 10 mM NH4OAc, […], 2 mM MgCl2, 0.5 mM EDTA, 0.01% NP-40) for mouse full length SOX18, or Tris-NaCl (10 mM Tris pH 8.0 and 100 mM NaCl) for SOX-HMG fragments. All experiments were performed using a 40 bp double-stranded Prox1-DNA element with 5′ fluorescein amidite (FAM) label (Sigma Proligo or InVitrogen). Optimum binding levels were obtained at 200 nM of mouse full length SOX18 and 60 nM of SOX-HMG fragment, in presence of 5 nM labelled DNA. Controls consisted of free labelled DNA (low FP milli-Polarization index, mP), labelled DNA in presence of protein (negative control, high mP), and labelled DNA and protein in presence of 400 time competing excess of unlabelled DNA (positive control, low mP). Depending on compound, final DMSO concentrations ranged from 2 to 3.33% v/v. After mixing protein, DNA probe and compound, plates were sealed and briskly agitated in the dark for 5 minutes at room temperature, 10 minutes at 37° C., and 30 minutes at room temperature, before reading fluorescence polarization on a Tecan M1000Pro (λexc=485 nm, λem=525 nm). All experiments were performed in triplicates.
In order to pinpoint the possible binding site of the small molecules, the FP assays were repeated with a shorter, DNA-binding centred protein fragment. The DNA binding domain of SOX TFs consists of the […] amino acid long High Mobility Group (HMG) box. The 109 amino-acid long SOX18 fragment (SOX18[109]) corresponds to residues 69-177 (numbering by mouse SOX18), which includes the HMG box (residues 78-149) and N- and C-terminal flanking sequences of 9 and 28 amino-acids, respectively.

[2] = system: HEK293; experiment: Cytotoxicity assay (Alamar blue), HEK293; type: cell-based; details: HEK293, 24 h
Description: Cell toxicity was determined using Alamar blue, as previously described (McMillian et al., 2002). COS-7 cells were seeded as 7000 cells per well in black wall clear bottom 96-well plates in DMEM medium (Life Technologies Australia) with 10% FBS. HepG2 and HEK293 cell lines, from ATCC, were seeded as 5000 cells per well in black wall clear bottom 384-well cell culture plates in DMEM with 1% FBS. Cells were cultured for 24 h at 37° C., 5% CO2. A serial dilution of compounds was added, with a final DMSO concentration adjusted to 0.5% v/v. Cells were incubated for another 24 h. 1 Triton X-100 was used as negative control, and 0.5% DMSO as positive control. 5 μM Alamar blue was added to each well and fluorescence was measured (λexc=560 nm, λem=590 nm) after 2 h incubation at 37° C. Data were analysed using Prism software.

[3] = system: HepG2; experiment: Cytotoxicity assay (Alamar blue), HepG2; type: cell-based; details: HepG2, 24 h
[4] = biological target: SOX18-RBPJ interaction (Homo sapiens (Human), UniProt P35713); experiment: ALPHAScreen SOX18-RBPJ protein-protein interaction; type: binding
Description: Proteins were genetically encoded with enhanced GFP (GFP), mCherry and cMyc (myc) tags, and cloned into cell free expression Gateway destination vectors: N-terminal GFP tagged (pCellFree_G03), N-terminal Cherry-cMyc (pCellFree_G07) and C-terminal Cherry-cMyc tagged (pCellFree_G08) (Gagoski et al., 2015). Human RBPJ (BC020780) and MEF2C (BC026341) Open Reading Frames (ORFs) were sourced from the Human ORFeome collection, version 1.1 and 5.1, and the Human Orfeome collaboration OCAA collection (Open Biosystems), as previously described (Sierecki et al., 2013) and cloned at the ARVEC facility, UQ Diamantina Institute. The entry clones pDONOR223 or pENTR201 vectors were exchanged with the ccdB gene in the expression plasmid by LR recombination (Life Technologies, Australia). The full-length human SOX18 gene was synthesized and the transfer to vectors was realized using Gateway PCR cloning. Translation competent Leishmania tarentolae extract (LTE) was prepared as previously described (Kovtun et al., 2011, Mureev et al., 2009). Protein pairs were co-expressed by adding 30 nM of GFP template plasmid and 60 nM of Cherry template plasmid to LTE and incubating for 3 hours at 27° C.
ALPHAScreen was performed as previously described (Sierecki et al., 2014, Sierecki et al., 2013). […] Percentage of interaction was calculated as: (I_cpd/I_DMSO)×100 from 3 independent experiments.
ALPHAScreen was performed as previously described (Sierecki et al., 2014, Sierecki et al., 2013), using the cMyc detection kit and Proxiplate-384 Plus plates (PerkinElmer). The LTE lysate co-expressing the proteins of interest was diluted in buffer A (25 mM HEPES, 50 mM NaCl). For the assay, 12.5 μL (0.4 μg) of Anti-cMyc coated Acceptor Beads in buffer B (25 mM HEPES, 50 mM NaCl, 0.001% NP40, 0.001% casein) were aliquoted into each well. This was followed by the addition of 2 μL of diluted sample, at different concentration, and 2 μL of biotin labeled GFP-Nanotrap in buffer A. The plates were incubated for 45 min at room temperature, then adding 2 μL (0.4 μg) of streptavidin-coated Donor Beads diluted in buffer A, and incubation in the dark for 45 min at room temperature. The ALPHAScreen signal was measured on an Envision Plate Reader (PerkinElmer), using manufacturer's recommended settings (λexc=680/30 nm for 0.18 s, λem=570/100 nm after 37 ms). The resulting bell-shaped curve is an indication of a positive interaction, while a flat line reflects a lack of interaction between the proteins. The measurement of each protein pair was repeated in triplicate.
I is the highest signal level (top of the hook effect curve) and Ineg is the lowest (background) signal level. The signals were normalized to the Iref signal obtained for the strongest interaction. […] Percentage of interaction was calculated as: […]
The ALPHA-Screen Assay was performed as previously described (Sierecki et al. 2014), using the cMyc detection kit and Proxiplate-384 Plus plates (PerkinElmer). A serial dilution of each sample was measured. The LTE lysate co-expressing the proteins of interest was diluted in buffer A (25 mM HEPES, 50 mM NaCl). For the assay, 12.5 μL (0.4 μg) of Anti-cMyc coated Acceptor Beads in buffer B (25 mM HEPES, 50 mM NaCl, 0.001% NP40, casein) were aliquoted into each well. This was followed by the addition of 2 μL of diluted sample and 2 μL of biotin labeled GFP-Nanotrap in buffer A. The plate was incubated for 45 min at RT. Afterward, 2 μL (0.4 μg) of Streptavidin coated Donor Beads diluted in buffer A, were added, followed by incubation in the dark for 45 min at RT. The ALPHA-Screen signal was obtained on an Envision Multilabel Plate Reader (PerkinElmer), using the manufacturer's recommended settings (excitation: 680/30 nm for 0.18 s, emission: 570/100 nm after 37 ms). The resulting bell-shaped curve is an indication of a positive interaction, while a flat line reflects a lack of interaction between the proteins. […]

[5] = system: SOX binding site consensus DNA; experiment: Direct DNA-binding assay (SPR), consensus DNA; details: biotinylated double-strand DNA on streptavidin chip
Description: (§1) Compounds were tested at a 1% v/v DMSO in HBS-EP buffer (10 mM HEPES, 150 mM NaCl, 3 mM EDTA, 0.005% v/v polysorbate 20, pH 7.4). The same buffer supplemented with 1% v/v DMSO was used as a mobile phase. DNA minor groove binder DAPI (4′,6-diamidino-2-phenylindole), DNA intercalator and minor groove binder actinomycin D, and DNA intercalator ethidium bromide were used as positive controls. Biotinylated (one tag per probe) double strand DNA probes were prepared using a standard annealing routine (5 min at 100° C., room temperature overnight and stored at −20° C.) of single strand anti-parallel DNA Probes purchased from Geneworks and were immobilized on CM5-SA streptavidin chips as per manufacturer's recommendations. […] All sample and control cycles were performed in triplicate. DMSO calibration was performed as per manufacturer's recommendations. After each injection, an extra flow system wash was performed with 50% v/v DMSO to avoid carryover. Experiments were run on a Biacore T200 (GE Healthcare, USA), with one flow cell kept as a reference.
(§2) From a molecular viewpoint, an inhibitor of SOX18-DNA binding could act either by interacting directly with the DNA, or the protein, or at the interface between protein and DNA. Binding of small molecules directly to the DNA, even though reported for other TFs (Leung et al., 2013), has the potential for unspecific DNA binding, leading to possible genotoxicity, mutagenicity, or carcinogenicity. For this reason, we developed a direct binding assays to determine whether the active compounds interact directly with DNA or protein. A surface plasmon resonance-based method was developed to analyse the binding of small molecules to biotinylated double stranded DNA immobilized on the surface of a streptavidin chip. The method measures the rate of binding (kon), dissociation (koff) and binding constant (KD), and was used to measure the binding to two different DNA sequences: SOX binding site consensus DNA, and scrambled DNA. Intercalating agents ethidium bromide and Actinomycin D, and the minor groove-binding agent 4′,6-diamino-2-phenylindole (DAPI) were used as positive controls for unselective DNA binding.

[6] = system: scrambled DNA; experiment: Direct DNA-binding assay (SPR), scrambled DNA; details: biotinylated double-strand DNA on streptavidin chip
Description: as §1, §2

Sequence of SOX18[109] HMG fragment (P43680 69-177): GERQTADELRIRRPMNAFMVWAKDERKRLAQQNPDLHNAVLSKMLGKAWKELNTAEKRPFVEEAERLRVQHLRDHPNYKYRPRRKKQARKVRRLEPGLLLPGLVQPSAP
Sequence of SOX18-RBPJ interaction (P35713 whole entry): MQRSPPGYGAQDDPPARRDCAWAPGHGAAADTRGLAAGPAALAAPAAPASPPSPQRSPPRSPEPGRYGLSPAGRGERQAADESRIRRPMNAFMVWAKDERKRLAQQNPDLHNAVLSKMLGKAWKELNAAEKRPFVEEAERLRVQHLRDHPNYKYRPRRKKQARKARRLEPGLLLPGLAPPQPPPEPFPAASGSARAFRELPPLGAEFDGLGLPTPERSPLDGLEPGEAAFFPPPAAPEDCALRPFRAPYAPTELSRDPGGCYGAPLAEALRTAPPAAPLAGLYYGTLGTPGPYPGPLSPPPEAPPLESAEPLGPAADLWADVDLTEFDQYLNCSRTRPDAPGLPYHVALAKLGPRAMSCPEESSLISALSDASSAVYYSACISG

Row | SMILES | FP bound fraction (%) 50 μM [1] | FP bound fraction (%) 200 μM [1] | CC50 [2] | CC50 [3] | SOX18-RBPJ protein-protein binding inhibition at 5 μM ([4]; 5 μM) | SOX18-DNA binding inhibition (FP, words) ([1]; SAR library, SOX18[109]) | effect on SOX18-RBPJ interaction (PPI) ([4]; ALPHAScreen) | binding to consensus DNA (SPR) [5] | binding to scrambled DNA (SPR) [6]
1 | COc1cccc(C=Cc2ccc3ccccc3c2)c1C(=O)O (mixture of isomers) [Sm19, (E/Z)-2-methoxy-6-(2-(naphthalen-2-yl)vinyl)benzoic acid] | 99.2 ± 6.8% | 107.6 ± 4.5% | > 100 µM | > 100 µM | highly active | – | – | – | –
2 | O=C(O)c1c(O)cccc1C=Cc1ccc2ccccc2c1 (mixture of isomers) [Sm20, (E/Z)-2-hydroxy-6-(2(naphthalen-2-yl)vinyl)benzoic acid] | 10.3 ± 4.1% | 11.9 ± 8.5% | 97.1 µM | 71.3 µM | – | displayed SOX18-DNA binding inhibiting activity; also recorded: inhibit both DNA and PPI | inhibit both DNA and PPI | – | –
3 | N=C(N)c1ccc(-c2cc3ccc(C(=N)N)cc3[nH]2)cc1 [DAPI, 4′,6-diamidino-2-phenylindole] | – | – | – | – | – | – | – | bind to DNA | bind to DNA
4 | Cc1c2oc3c(C)ccc(C(=O)N[C@@H]4C(=O)N[C@H](C(C)C)C(=O)N5CCC[C@H]5C(=O)N(C)CC(=O)N(C)[C@@H](C(C)C)C(=O)O[C@@H]4C)c3nc-2c(C(=O)N[C@@H]2C(=O)N[C@H](C(C)C)C(=O)N3CCC[C@H]3C(=O)N(C)CC(=O)N(C)[C@@H](C(C)C)C(=O)O[C@@H]2C)c(N)c1=O [actinomycin D] (I: T[dV]P[Sar][NMeV] / II: T[dV]P[Sar][NMeV]; ester I:1-I:C, II:1-II:C; linker I:N-II:N via Actinocin(9to1)) | – | – | – | – | – | – | – | bind to DNA | bind to DNA
5 | CC[n+]1c(-c2ccccc2)c2cc(N)ccc2c2ccc(N)cc21 [ethidium bromide] | – | – | – | – | – | – | – | bind to DNA | bind to DNA
